This is an account of results in patent publication US20220267331A1, “DOPAMINE-B-HYDROXYLASE INHIBITORS” (BIAL - PORTELA & CA, S.A., priority 2019, published 2022).

Structures are written as SMILES. Where a name gives a salt, the structure may show the parent alone.

In the experiment the target is T1, DβH (Homo sapiens, UniProt P09172).
T1 construct: 125 μL of plasma (or saline for blank reaction or standard curve); tissue Instituto Português do Sangue Transplantação, Centro Sangue Transplantação, Porto, Portugal; host or cells: human plasma from healthy donors
T1 sequence (P09172 40-617 limits assumed): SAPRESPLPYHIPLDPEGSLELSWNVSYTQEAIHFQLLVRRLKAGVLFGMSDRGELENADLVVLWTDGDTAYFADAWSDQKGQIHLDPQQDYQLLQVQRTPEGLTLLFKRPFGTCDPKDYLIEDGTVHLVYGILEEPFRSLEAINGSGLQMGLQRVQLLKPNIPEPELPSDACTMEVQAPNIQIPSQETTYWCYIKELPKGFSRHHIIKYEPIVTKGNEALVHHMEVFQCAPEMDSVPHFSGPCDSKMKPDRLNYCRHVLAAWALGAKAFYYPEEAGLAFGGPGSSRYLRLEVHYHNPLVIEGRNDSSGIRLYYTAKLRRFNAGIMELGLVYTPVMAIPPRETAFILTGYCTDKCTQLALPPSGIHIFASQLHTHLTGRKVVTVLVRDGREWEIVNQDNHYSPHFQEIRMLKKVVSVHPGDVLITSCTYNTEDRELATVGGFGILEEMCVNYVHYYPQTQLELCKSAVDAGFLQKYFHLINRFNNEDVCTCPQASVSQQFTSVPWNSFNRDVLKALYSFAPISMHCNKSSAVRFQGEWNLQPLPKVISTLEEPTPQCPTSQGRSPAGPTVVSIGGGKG
Nature of the experiment: Dopamine-β-hydroxylase inhibition assay in human plasma. Type of experiment: biochemical. Conditions: for remaining activity at 0.01 µM / DβH (0.01 μM): DβH activity in human plasma at 0.01 μM inhibitor; for remaining activity at 0.1 µM / DβH (0.1 μM): DβH activity in human plasma at 0.1 μM inhibitor; for IC50: human plasma, curve fitting of 6 concentrations (100 nM to 0.3 nM). The protocol:
The ability of a compound to inhibit DβH activity may be assessed in human plasma using the following assay.
Dopamine beta hydroxylase activity in human plasma was measured by the method of Nagatsu and Udenfriend (Nagatsu, T. and Udenfriend, S. “Photometric assay of dopamine-p-hydroxylase activity in human blood.” Clin. Chem. 18(9) 980-983, 1972) with minor modifications. Catalase, N-ethylmaleimide, tyramine, disodium fumarate, pargyline, sodium acetate, ascorbic acid, copper sulfate and octopamine were obtained from Sigma Chemical Co., St. Louis, Mo. 63178. Human plasma samples were obtained from healthy donors (Instituto Português do Sangue Transplantação, Centro Sangue Transplantação, Porto, Portugal). From date of collection, plasma was stored at −80° C. until use. Test compounds were initially prepared in dimethyl sulfoxide at a concentration of 10 mM and diluted in dimethyl sulfoxide to the required concentrations. Test compounds were further diluted in ultrapure water to a concentration 20-fold to that of the final concentration to be tested. Final concentrations of test compounds were 10 and 100 nM. The various reagents used to make up the incubation buffer were premixed and consisted of the following components: sodium acetate buffer (1 M, pH 5.0, 18 mL), sodium fumarate (0.2 M, 4.5 mL), ascorbic acid (0.2 M, 4.5 ml, freshly prepared), pargyline (20 mM, freshly prepared, 4.5 mL), N-ethylmaleimide (0.2 M, 4.5 mL), catalase (10 000 U/mL, 9 mL), copper sulfate (20 μM, 4.5 mL) and 4.5 ultrapure water. The standard incubation mixture (total volume, 950 μL) contained: 50 μL of compound or vehicle (dimethyl sulfoxide 2%); 700 μL of incubation buffer; 125 μL of plasma (or saline for blank reaction or standard curve); 75 μL of saline. The reaction mixture was placed in water bath, shaking at 37° C. and pre-incubated for 10 minutes. Tyramine (0.5 M) was added and incubation proceeded for 45 minutes. The reaction contents were exposed to air. A sample of enzyme preparation (with 125 μL of plasma) that had been added perchloric acid 2 M at the end of the pre-incubation period was used as blank. A blank for each of the tested compounds was used. For octopamine standard curve, perchloric acid 2 M was replaced by increasing concentrations of octopamine prepared in perchloric acid 2 M (0.5, 1, 2.5, 5, 7.5, 10, 15, 20 μg/mL, final concentration). The incubation was stopped by adding 200 μL of 2 M molar perchloric acid, and the mixture was centrifuged at 9000 g for 5 min. The supernatant fluid (800 μL) was transferred to a column (SPE cartridge ISOLUTE SCX-3, 100 mg) and centrifuged at 150 g for 2 min. The column was washed two more times with 0.5 ml of ultrapure water by centrifuging at 150 g for 2 min. The adsorbed octopamine was eluted twice with 0.3 mL of 4 M ammonium hydroxide by centrifuging at 150 g for 2 min. Octopamine in the eluate was then converted to p-hydroxybenzaldehyde by adding 200 μL of sodium periodate (2%) and incubating for 6 min. Excess periodate was than reduced by adding 200 μL of sodium metabisulfite (10%). Absorbance was measured at […] in a 96-well plate by use of a SpectraMAX plus 384 (Molecular Devices) with software SOFTmax® PRO Software 5.3 spectrophotometer. Absorbance was linear with octopamine concentration from 0.5 to 20 μg/mL. Dopamine beta hydroxylase activity is determined as nmol of octopamine formed/mL of plasma/hour and effect of compounds is presented as % control. Results are reported in the table below as activity in % of control at the inhibitor concentration tested.
IC50 values of selected compounds were calculated based on curve fitting of results of 6 different compound concentrations (100 nM to 0.3 nM). IC50 data are reported in nM concentration.

Consider `Fc1ccc(F)c([C@H]2Cc3c(CCCN4CCOCC4)[nH]c(=S)n3C2)c1F` [Example 6, (R)-1-(3-morpholinopropyl)-6-(2,3,6-trifluorophenyl)-2,5,6,7-tetrahydro-3H-pyrrolo[1,2-c]imidazole-3-thione], for which the remaining activity at 0.01 µM was 63.6%, the remaining activity at 0.1 µM stood at 10.4% and the IC50 was 11.6 nM.
Turning to `CN(C)CCCc1[nH]c(=S)n2c1C[C@H](c1c(F)ccc(F)c1F)C2.Cl` [Example 10, (R)-1-(3-(dimethylamino)propyl)-6-(2,3,6-trifluorophenyl)-2,5,6,7-tetrahydro-3H-pyrrolo[1,2-c]imidazole-3-thione hydrochloride], the “DβH (0.01 μM)” value is 86.2 % of Control and the “DβH (0.1 μM)” value was 45.8 % of Control.
For `Cl.Fc1ccc(F)c([C@H]2Cc3c(CCCN4CCOCC4)[nH]c(=S)n3C2)c1F` [Example 1, (R)-1-(3-morpholinopropyl)-6-(2,3,6-trifluorophenyl)-2,5,6,7-tetrahydro-3H-pyrrolo[1,2-c]imidazole-3-thione hydrochloride], the “DβH (0.01 μM)” value was 64.6 % of Control, the “DβH (0.1 μM)” value is listed as 12.9 % of Control and the IC50 came out at 12.7 nM.
Turning to `Fc1ccc(Cl)c(F)c1[C@]12C[C@H]1c1c(CCCN3CCOCC3)[nH]c(=S)n1C2` [Example 15, (5aS,6aR)-5a-(3-chloro-2,6-difluorophenyl)-1-(3-morpholinopropyl)-5,5a,6,6a-tetrahydrocyclopropa[3,4]pyrrolo[1,2-c]imidazole-3(2H)-thione hydrochloride], the remaining activity at 0.01 µM worked out at 13.6%, the remaining activity at 0.1 µM was 1% and 2.7 nM corresponded to half-maximal inhibition (IC50).
The corresponding values for `CN(CCCc1[nH]c(=S)n2c1C[C@H](c1c(F)ccc(F)c1F)C2)C1CCOCC1` [Example 12, (R)-1-(3-(methyl(tetrahydro-2H-pyran-4-yl)amino)propyl)-6-(2,3,6-trifluorophenyl)-2,5,6,7-tetrahydro-3H-pyrrolo[1,2-c]imidazole-3-thione] are 71.2%, 18.9% and 20.9 nM.
Regarding `Fc1ccc(F)c([C@H]2Cc3c(CCCN4CC[C@@H](F)C4)[nH]c(=S)n3C2)c1F` [Example 11, (R)-1-(3-((R)-3-fluoropyrrolidin-1-yl)propyl)-6-(2,3,6-trifluorophenyl)-2,5,6,7-tetrahydro-3H-pyrrolo[1,2-c]imidazole-3-thione], the “DβH (0.01 μM)” value is 40.6 % of Control, the “DβH (0.1 μM)” value is on record as 7.7 % of Control and 7.2 nM corresponded to half-maximal inhibition (IC50).
Turning to `Fc1ccc(Cl)cc1[C@]12C[C@H]1c1c(CCCN[C@H]3CCCOC3)[nH]c(=S)n1C2` [Example 21, (5aS,6aR)-5a-(5-chloro-2-fluorophenyl)-1-(3-(((S)-tetrahydro-2H-pyran-3-yl)amino)propyl)-5,5a,6,6a-tetrahydrocyclopropa[3,4]pyrrolo[1,2-c]imidazole-3(2H)-thione], the remaining activity at 0.01 µM turned out to be 45.3% and the remaining activity at 0.1 µM was 8.5%.
